Where “and” joins values, the source holds several entries; their conditions need not be identical. Identical values can stand only once. Toxic doses and inconclusive results are not listed.

The test has as its system L1210 leukemia ip in BDF1 mice, survival T/C. Description: NCI In Vivo Anticancer Drug Screen. Data for tumor model L1210 Leukemia (intraperitoneal) in B6D2F1 (BDF1) mice. The conditions noted are these: endpoint: mean survival time, higher = longer survival. The procedure, abridged: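 Ratio derived from survival: compound-dosed mice over vehicle-dosed mice, all bearing a transplantable tumor.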

[1] abbreviates: dose: 100.0 mg/kg/injection, schedule: Q04DX002 (ip), vehicle: Klucel (hydroxypropylcellulose) (HPC).
[2] abbreviates: dose: 200.0 mg/kg/injection, schedule: Q04DX002 (ip), vehicle: Klucel (hydroxypropylcellulose) (HPC).
Where [3] appears, read: dose: 100.0 mg/kg/injection, schedule: Q01DX009 (ip), vehicle: Klucel (hydroxypropylcellulose) (HPC).
[4] abbreviates: dose: 100.0 mg/kg/injection, schedule: Q04DX003 (ip), vehicle: Klucel (hydroxypropylcellulose) (HPC).
Setting [5] is: dose: 50.0 mg/kg/injection, schedule: Q01DX009 (ip), vehicle: saline.
[6] abbreviates: dose: 100.0 mg/kg/injection, schedule: Q01DX009 (ip), vehicle: saline.
Setting [7] is: dose: 100.0 mg/kg/injection, schedule: Q04DX003 (ip), vehicle: saline.
[8] abbreviates: dose: 200.0 mg/kg/injection, schedule: Q04DX003 (ip), vehicle: saline.
Where [9] appears, read: dose: 6.25 mg/kg/injection, schedule: Q01DX009 (ip), vehicle: saline.
The mark [10] stands for this setting: dose: 25.0 mg/kg/injection, schedule: Q01DX009 (ip), vehicle: saline.
[11] abbreviates: dose: 100.0 mg/kg/injection, schedule: Q01DX009 (ip), vehicle: saline with Tween-80.
[12] abbreviates: dose: 200.0 mg/kg/injection, schedule: Q01DX009 (ip), vehicle: saline with Tween-80.
Where [13] appears, read: dose: 400.0 mg/kg/injection, schedule: Q01DX009 (ip), vehicle: saline with Tween-80.

For `NCCSC1(O)C(=O)c2ccccc2-c2ccccc21` (centres undefined), the T/C (dose: 37.5 mg/kg/injection, schedule: Q04DX003 (ip), vehicle: saline) was 94 % of control; the T/C (dose: 75.0 mg/kg/injection, schedule: Q01DX001 (ip), vehicle: saline) was 101 % of control; the T/C (dose: 75.0 mg/kg/injection, schedule: Q04DX003 (ip), vehicle: saline) was 103 % of control; the T/C (dose: 150.0 mg/kg/injection, schedule: Q01DX001 (ip), vehicle: saline) was 95 % of control; the T/C (dose: 150.0 mg/kg/injection, schedule: Q04DX003 (ip), vehicle: saline) was 95 % of control.
With `O=C(O)c1cc(Cl)c(Br)c(Cl)c1`, the T/C was 100 % of control under setting [1] and 107 % of control under setting [2].
In the case of `COc1ccc(NC(=O)Oc2cc(C)cc(C)c2)cc1`, the T/C reads like this: under setting [3], 106 % of control; under setting [4], 100 % of control; (dose: 200.0 mg/kg/injection, schedule: Q01DX009 (ip), vehicle: Klucel (hydroxypropylcellulose) (HPC)) 101 % of control; (dose: 200.0 mg/kg/injection, schedule: Q04DX003 (ip), vehicle: Klucel (hydroxypropylcellulose) (HPC)) 97 % of control; (dose: 400.0 mg/kg/injection, schedule: Q01DX009 (ip), vehicle: Klucel (hydroxypropylcellulose) (HPC)) 100 % of control; (dose: 400.0 mg/kg/injection, schedule: Q04DX003 (ip), vehicle: Klucel (hydroxypropylcellulose) (HPC)) 92 % of control.
In the case of `Nc1ccc(OCCNS(=O)(=O)c2cccc(S(=O)(=O)F)c2)c(Cl)c1`, the T/C was 97 % of control under setting [5], 102 % of control under setting [6], 97 % of control under setting [7] and 97 % of control under setting [8].
On to `OCc1ccn2c1[C@@H](O)CC2`, for which the T/C runs as follows: under setting [9], 107 % of control; (dose: 12.5 mg/kg/injection, schedule: Q01DX009 (ip), vehicle: acetone) 100 % of control; (dose: 12.5 mg/kg/injection, schedule: Q01DX009 (ip), vehicle: saline) 96 % of control; (dose: 25.0 mg/kg/injection, schedule: Q01DX001 (ip), vehicle: saline) 101 % of control and 107 % of control; (dose: 25.0 mg/kg/injection, schedule: Q01DX009 (ip), vehicle: acetone) 111 % of control; under setting [10], 110 % of control. The T/C was 112 % of control (dose: 50.0 mg/kg/injection, schedule: Q01DX001 (ip), vehicle: saline); 153 % of control under setting [5]; 121 % of control and 89 % of control under setting [6]; 112 % of control (dose: 200.0 mg/kg/injection, schedule: Q01DX001 (ip), vehicle: saline).
As to `Oc1ccc(NC(=S)Nc2ccccc2)cc1`, the T/C is 93 % of control under setting [11], 88 % of control under setting [12] and 92 % of control under setting [13].
In the case of `CC(C)(C)C1CCC([N+](=O)[O-])CC1` (centres undefined), the T/C by setting is: (dose: 19.0 mg/kg/injection, schedule: Q01DX001 (ip), vehicle: other) 103 % of control; (dose: 19.0 mg/kg/injection, schedule: Q01DX009 (ip), vehicle: other) 102 % of control; (dose: 38.0 mg/kg/injection, schedule: Q01DX001 (ip), vehicle: other) 97 % of control; (dose: 38.0 mg/kg/injection, schedule: Q01DX009 (ip), vehicle: other) 98 % of control; (dose: 75.0 mg/kg/injection, schedule: Q01DX001 (ip), vehicle: other) 95 % of control and 97 % of control.
On to `O=[N+]([O-])c1ccccc1NS(=O)(=O)c1ccccc1`, for which the T/C under setting [11] was 95 % of control; the T/C (dose: 100.0 mg/kg/injection, schedule: Q04DX003 (ip), vehicle: saline with Tween-80) was 93 % of control; the T/C under setting [12] is 96 % of control; the T/C (dose: 200.0 mg/kg/injection, schedule: Q04DX003 (ip), vehicle: saline with Tween-80) was 97 % of control; the T/C under setting [13] was 98 % of control; the T/C (dose: 400.0 mg/kg/injection, schedule: Q04DX003 (ip), vehicle: saline with Tween-80) was 97 % of control.
Regarding `Cc1cccc(C(=O)OCCBr)c1`, the T/C runs as follows: (dose: 100.0 mg/kg/injection, schedule: Q04DX003 (ip), vehicle: saline sonified) 98 % of control; (dose: 200.0 mg/kg/injection, schedule: Q04DX003 (ip), vehicle: saline sonified) 104 % of control; (dose: 400.0 mg/kg/injection, schedule: Q04DX003 (ip), vehicle: saline sonified) 106 % of control.
Consider `O=[N+]([O-])c1cccc(Cl)c1F`, for which the T/C runs as follows: under setting [1], 101 % of control; under setting [2], 96 % of control.
As for `CC[n+]1ccc2cc(OC)c(OC)cc2c1Cc1ccc(OC)c(OC)c1`, the T/C reads like this: under setting [10], 94 % of control; under setting [5], 115 % of control; under setting [7], 98 % of control.
`CCC(CC)NC(C)CO` (centres undefined): the T/C is 105 % of control (dose: 75.0 mg/kg/injection, schedule: Q01DX001 (ip), vehicle: acid diluted with saline); 103 % of control (dose: 150.0 mg/kg/injection, schedule: Q01DX001 (ip), vehicle: acid diluted with saline); 103 % of control (dose: 300.0 mg/kg/injection, schedule: Q01DX001 (ip), vehicle: acid diluted with saline).
In the case of `ClC/C=C/C[P+](c1ccccc1)(c1ccccc1)c1ccccc1`, the T/C by setting is: (dose: 1.56 mg/kg/injection, schedule: Q01DX009 (ip), vehicle: saline) 89 % of control; (dose: 3.12 mg/kg/injection, schedule: Q01DX009 (ip), vehicle: saline) 99 % of control; under setting [9], 95 % of control.
As to `NN1CC(=O)NC1=O`, the T/C is, setting by setting: under setting [7], 100 % of control; under setting [8], 102 % of control; (dose: 400.0 mg/kg/injection, schedule: Q04DX003 (ip), vehicle: saline) 100 % of control.
Take `CC(C(=O)c1ccc(-c2ccccc2)cc1)C(Cl)c1ccccc1` (centres undefined): the T/C was 106 % of control under setting [11], 94 % of control under setting [12] and 97 % of control under setting [13].
With `c1ccc([S][Pb]([c]2ccccc2)([c]2ccccc2)[c]2ccccc2)cc1`, the T/C is 111 % of control (dose: 8.0 mg/kg/injection, schedule: Q04DX003 (ip), vehicle: saline); 103 % of control (dose: 16.0 mg/kg/injection, schedule: Q04DX003 (ip), vehicle: saline); 122 % of control (dose: 32.0 mg/kg/injection, schedule: Q04DX003 (ip), vehicle: saline).
In the case of `Clc1nc(SC2=NCCN2)c2[nH]cnc2n1`, the T/C was 108 % of control (dose: 10.0 mg/kg/injection, schedule: Q01DX009 (ip), vehicle: saline with Tween-80); 102 % of control (dose: 12.5 mg/kg/injection, schedule: Q01DX009 (ip), vehicle: saline with Tween-80); 106 % of control (dose: 12.5 mg/kg/injection, schedule: Q04DX003 (ip), vehicle: saline with Tween-80); 101 % of control (dose: 20.0 mg/kg/injection, schedule: Q01DX009 (ip), vehicle: saline with Tween-80); 104 % of control (dose: 25.0 mg/kg/injection, schedule: Q01DX009 (ip), vehicle: saline with Tween-80); 106 % of control (dose: 25.0 mg/kg/injection, schedule: Q04DX003 (ip), vehicle: saline with Tween-80). The T/C was 100 % of control (dose: 40.0 mg/kg/injection, schedule: Q01DX009 (ip), vehicle: saline with Tween-80); 113 % of control (dose: 50.0 mg/kg/injection, schedule: Q01DX009 (ip), vehicle: saline with Tween-80); 107 % of control (dose: 50.0 mg/kg/injection, schedule: Q04DX003 (ip), vehicle: saline with Tween-80).
For `CCc1cccc(CC)c1N1C(=O)C2C(C1=O)C1(Cl)C(Cl)=C(Cl)C2(Cl)C1(Cl)Cl` (centres undefined), the T/C is 98 % of control (dose: 25.0 mg/kg/injection, schedule: Q01DX009 (ip), vehicle: Klucel (hydroxypropylcellulose) (HPC)); 91 % of control (dose: 25.0 mg/kg/injection, schedule: Q04DX003 (ip), vehicle: Klucel (hydroxypropylcellulose) (HPC)); 102 % of control (dose: 50.0 mg/kg/injection, schedule: Q01DX009 (ip), vehicle: Klucel (hydroxypropylcellulose) (HPC)); 93 % of control (dose: 50.0 mg/kg/injection, schedule: Q04DX003 (ip), vehicle: Klucel (hydroxypropylcellulose) (HPC)); 105 % of control under setting [3]; 106 % of control and 88 % of control under setting [4].

The values are drawn from PubChem BioAssay AID248 (DTP/NCI, 2004).
